Experimental data: patent publication US20210251237A1, “PLATFORM FOR DEVELOPING SOIL-BORNE PLANT PATHOGEN INHIBITING MICROBIAL CONSORTIA” (priority 2018, published 2021)
Like-named read-outs stand apart in the source and are kept apart here.

What was measured:
Format in all cases: cell-based
[1] = tested on: Pythium ultimum var. sporangiferum; assay: Pathogen suppressive activity plate assay (zone of inhibition)
Sclerotinia sclerotiorum = assay: as above; conditions: for mean inhibitory zone size: Table 4
Rhizoctonia solani = assay: as above; conditions: for mean inhibitory zone size: Table 4
F. culmorum = assay: as above; conditions: Table 1; pathogen isolate P61
[2] = tested on: random collection of Streptomyces from field soils; assay: Enhancement of antibiotic production in field-soil Streptomyces
[3] = tested on: clinical antimicrobials (antibiotic discs); assay: Antibiotic disc resistance/susceptibility assay of microbial isolates
Phytophthora sojae = assay: Pathogen suppressive activity plate assay (zone of inhibition)
Fusarium virguliforme = assay: as above; conditions: Table 4
Fusarium graminearum = conditions: for zone of inhibition: Table 1; for mean inhibitory zone size: Table 4
Fusarium oxysporum = assay: Pathogen suppressive activity plate assay (zone of inhibition); conditions: for zone of inhibition: Table 1; for mean inhibitory zone size: Table 4
[4] = tested on: GS1, PS1 and PS3 (overlaid isolates); assay: Mutual inhibition activity among GS1, PS1 and PS3; conditions: mild inhibition
Method: Each of the microbes—GS1, PS1 and PS3—was grown in the presence of every other isolate (i.e., GS1 with PS1; GS1 with PS3; and PS1 with PS3). Briefly, isolates GS1, PS1 and PS3 were dotted onto the center of individual petri dishes and allowed to grow for 3 days. Dotted isolates were then killed by placing petri dishes over a chloroform-filled watch glass in a safety cabinet for one hour. Subsequently, overlays of the other two isolates spread across the entire petri dish surface. In this way, each isolate was tested as a potential inhibitor (dotted isolates) in combination with every isolate as a target (overlaid isolates). The growth of the microbial isolates was evaluated for the presence or absence of zones of inhibition at the interphase between the bacterial isolates. […] Results from this analysis show the potential for isolates to coexist without inhibiting one another.

[5] = tested on: GS1 and PS3 (inhibition zones on Bacillus lawns); assay: Antimicrobial signaling/responsiveness among GS1, PS1, PS3; conditions: increased inhibition zones around GS1 and PS3 vs single inoculant controls
Phytophthora medicaginis = assay: Pathogen suppressive activity plate assay (zone of inhibition); conditions: for zone of inhibition: Table 1; for mean inhibitory zone size: Table 4

## Streptomyces sp. 3211.1 [PS1]
[1]; Table 1, pathogen isolate P58
  zone of inhibition: 0 mm
[1]; Table 4, pathogen target isolate P58
  mean inhibitory zone size: 0 mm
Sclerotinia sclerotiorum; Table 1, pathogen isolate P19
  zone of inhibition: 0 mm
Sclerotinia sclerotiorum; pathogen target isolate P17
  mean inhibitory zone size: 12.8 mm
Sclerotinia sclerotiorum; pathogen target isolate P18
  mean inhibitory zone size: 3.25 mm
Sclerotinia sclerotiorum; pathogen target isolate P19
  mean inhibitory zone size: 0 mm
Rhizoctonia solani; Table 1, pathogen isolate P6
  zone of inhibition: 0 mm
Rhizoctonia solani; pathogen target isolate P5
  mean inhibitory zone size: 0 mm
Rhizoctonia solani; pathogen target isolate P6
  mean inhibitory zone size: 0 mm
Rhizoctonia solani; pathogen target isolate P12
  mean inhibitory zone size: 0 mm
F. culmorum
  zone of inhibition: 0 mm
[2]
  more effective than other isolates in enhancing antibiotic production: ~50%
  share of a random collection of Streptomyces whose antibiotic production is enhanced: 30%
[3]; Amoxicillin Clavulanate
  Antibiotic resistance characteristics: MR (MR-moderately resistant (1-5 mm))
[3]; Chloramphenicol
  Antibiotic resistance characteristics: R (R-resistant (0 inhibition zone))
[3]; Erythromycin
  Antibiotic resistance characteristics: MR (MR-moderately resistant (1-5 mm))
[3]; Kanamycin
  Antibiotic resistance characteristics: S (S-susceptible (>10 mm))
[3]; Novobiocin 5
  Antibiotic resistance characteristics: MR (MR-moderately resistant (1-5 mm))
[3]; Novobiocin 30
  Antibiotic resistance characteristics: MS (MS-moderately susceptible (6-10 mm))
[3]; Penicillin
  Antibiotic resistance characteristics: R (R-resistant (0 inhibition zone))
[3]; Rifampin
  Antibiotic resistance characteristics: MR (MR-moderately resistant (1-5 mm))
[3]; Streptomycin
  Antibiotic resistance characteristics: MS (MS-moderately susceptible (6-10 mm))
[3]; Tetracycline
  Antibiotic resistance characteristics: MR (MR-moderately resistant (1-5 mm))
[3]; Vancomycin 5
  Antibiotic resistance characteristics: MS (MS-moderately susceptible (6-10 mm))
[3]; Vancomycin 30
  Antibiotic resistance characteristics: MS (MS-moderately susceptible (6-10 mm))
Phytophthora sojae; Table 1, pathogen isolate P52
  zone of inhibition: 0 mm
Phytophthora sojae; Table 4, pathogen target isolate P52
  mean inhibitory zone size: 0 mm
Fusarium virguliforme; pathogen target isolate P20
  mean inhibitory zone size: 0 mm
Fusarium virguliforme; pathogen target isolate P21
  mean inhibitory zone size: 0 mm
Fusarium virguliforme; pathogen target isolate P22
  mean inhibitory zone size: 0 mm
Fusarium virguliforme; pathogen target isolate P23
  mean inhibitory zone size: 3.58 mm
Fusarium graminearum; pathogen isolate P31
  zone of inhibition: 3.05 mm
Fusarium graminearum; pathogen isolate P34
  zone of inhibition: 0 mm
Fusarium graminearum; pathogen target isolate P30
  mean inhibitory zone size: 0 mm
Fusarium graminearum; pathogen target isolate P31
  mean inhibitory zone size: 3.05 mm
Fusarium graminearum; pathogen target isolate P32
  mean inhibitory zone size: 0 mm
Fusarium graminearum; pathogen target isolate P33
  mean inhibitory zone size: 0 mm
Fusarium graminearum; pathogen target isolate P34
  mean inhibitory zone size: 0 mm
Fusarium graminearum; pathogen target isolate P35
  mean inhibitory zone size: 0 mm
Fusarium oxysporum; pathogen isolate P27
  zone of inhibition: 0 mm
Fusarium oxysporum; pathogen isolate P29
  zone of inhibition: 0 mm
Fusarium oxysporum; pathogen target isolate P25
  mean inhibitory zone size: 0 mm
Fusarium oxysporum; pathogen target isolate P26
  mean inhibitory zone size: 0 mm
Fusarium oxysporum; pathogen target isolate P28
  mean inhibitory zone size: 0 mm
Fusarium oxysporum; pathogen target isolate P29
  mean inhibitory zone size: 0 mm
[4]; against GS1
  inhibition zone size: < 5 mm
[4]; against GS3 (so in the source)
  inhibition zone size: < 5 mm
[5]
  effect on antibiotic production by the two other isolates: enhance antibiotic production
Phytophthora medicaginis; pathogen isolate P43
  zone of inhibition: 0 mm
Phytophthora medicaginis; pathogen isolate P44
  zone of inhibition: 0 mm
Phytophthora medicaginis; pathogen target isolate P43
  mean inhibitory zone size: 0 mm
Phytophthora medicaginis; pathogen target isolate P44
  mean inhibitory zone size: 0 mm
